In the supplement of paper PMC10307832:

Each cell line was assayed with CC(C)CCN1c2nc(Nc3cc(F)c(O)c(F)c3)ncc2N(C)C(=O)C1C [BI-D1870] + CCNC(=O)c1noc(-c2cc(C(C)C)c(O)cc2O)c1-c1ccc(CN2CCOCC2)cc1 [Luminespib] (partner 0.01 µM) (assay: relative viability (nuclei count vs DMSO), 5 days (fraction); higher = more cells survive). Conditions: first compound 0.04 µM.
Outline: (§1)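 Relative viability was taken as the ratio of nuclei in treated wells to nuclei in vehicle wells. Lung cancer cell lines in 1536-well plates received compounds by pin tool one day after seeding, either one drug alone or a fixed anchor-drug dose plus five library-drug doses (not always all listed) in √10 steps. Nuclei were counted on 4× images after 5 days of treatment, and values are medians of duplicate plates.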

Cell Line	relative viability
NCI-H2342	0.706
NCI-H1623	0.597
NCI-H727	0.235
NCI-H1650	0.197
NCI-H1993	1
SW 1573	0.219
NCI-H838	0.309
LCLC-103H	0.989
NCI-H520	0.207
NCI-H2126	0.899
EMC-BAC-2	1.2
NCI-H2085	0.483
NCI-H1666	1.02
NCI-H596	1.16
LK-2	0.204
NCI-H2087	0.165
SK-MES-1	0.904
H3255	0.929
COR-L23	0.812
COR-L 105	0.824
LOU-NH91	0.366
ChaGo-K-1	0.643
NCI-H2170	0.817
HCC-44	1.46
NCI-H1792	0.505
NCI-H1563	0.512

Same assay, conditions: first compound 0.1265 µM

Cell Line	relative viability
NCI-H2342	0.718
NCI-H1623	0.521
NCI-H727	0.354
NCI-H1650	0.212
NCI-H1993	0.629
SW 1573	0.172
NCI-H838	0.343
LCLC-103H	0.753
NCI-H520	0.209
NCI-H2126	0.767
EMC-BAC-2	1.08
NCI-H2085	0.452
NCI-H1666	0.977
NCI-H596	0.985
LK-2	0.19
NCI-H2087	0.18
SK-MES-1	0.649
H3255	0.887
COR-L23	0.524
COR-L 105	0.828
LOU-NH91	0.33
ChaGo-K-1	0.406
NCI-H2170	0.723
HCC-44	1
NCI-H1792	0.432
NCI-H1563	0.481

Same assay, conditions: first compound 0.4 µM

Cell Line	relative viability
NCI-H2342	0.711
NCI-H1623	0.625
NCI-H727	0.302
NCI-H1650	0.193
NCI-H1993	0.972
SW 1573	0.297
NCI-H838	0.236
LCLC-103H	0.888
NCI-H520	0.243
NCI-H2126	0.866
EMC-BAC-2	1.02
NCI-H2085	0.503
NCI-H1666	1.01
NCI-H596	1.27
LK-2	0.185
NCI-H2087	0.206
SK-MES-1	0.66
H3255	0.884
COR-L23	0.587
COR-L 105	0.631
LOU-NH91	0.315
ChaGo-K-1	0.601
NCI-H2170	0.751
HCC-44	0.986
NCI-H1792	0.393
NCI-H1563	0.502

Same assay, conditions: first compound 1.265 µM

Cell Line	relative viability
NCI-H2342	0.758
NCI-H1623	0.462
NCI-H727	0.332
NCI-H1650	0.212
NCI-H1993	1
SW 1573	0.191
NCI-H838	0.295
LCLC-103H	1.07
NCI-H520	0.22
NCI-H2126	0.915
EMC-BAC-2	1.38
NCI-H2085	0.407
NCI-H1666	1.05
NCI-H596	0.786
LK-2	0.169
NCI-H2087	0.213
SK-MES-1	0.535
H3255	1.09
COR-L23	0.875
COR-L 105	0.854
LOU-NH91	0.351
ChaGo-K-1	0.631
NCI-H2170	0.65
HCC-44	1.26
NCI-H1792	0.592
NCI-H1563	0.521

Same assay, conditions: first compound 4 µM

Cell Line	relative viability
NCI-H2342	0.907
NCI-H1623	0.499
NCI-H727	0.314
NCI-H1650	0.2
NCI-H1993	0.834
SW 1573	0.143
NCI-H838	0.319
LCLC-103H	0.934
NCI-H520	0.194
NCI-H2126	0.769
EMC-BAC-2	1.21
NCI-H2085	0.364
NCI-H1666	0.825
NCI-H596	0.915
LK-2	0.212
NCI-H2087	0.186
SK-MES-1	0.251
H3255	0.961
COR-L23	0.504
COR-L 105	0.666
LOU-NH91	0.264
ChaGo-K-1	0.551
NCI-H2170	0.67
HCC-44	0.695
NCI-H1792	0.344
NCI-H1563	0.526

These cell lines were tested with O=c1ncccn1[C@@H]1O[C@H](CO)[C@@H](O)[C@H]1O [Zebularine] + Cc1cc(Nc2cc(N3CCN(C)CC3)nc(Sc3ccc(NC(=O)C4CC4)cc3)n2)n[nH]1 [Tozasertib] (partner 0.1 µM) in the same assay as above. Conditions: first compound 1 µM.
Outline: as §1

Cell Line	relative viability
NCI-H2342	0.451
NCI-H1623	0.513
NCI-H727	0.639
